Experimental data published in patent US20170057955A1, “Pyridopyrimidinone Compounds for Modulating the Catalytic Activity of Histone Lysine Demethylases (KDMs)” (Dong-A Socio Holdings Co., Ltd., priority 2015, published 2017).

target: T1, Recombinant human JARID1B/KDM5B (Homo sapiens, UniProt Q9UGL1); test: LANCE Ultra TR-FRET JARID1B (KDM5B) demethylase inhibition assay; type: biochemical; details: 0.1 uM of test-compounds, FLAG-JARID1B, 500 nM biotinylated H3K4me3 peptide substrate, 30 min at room temperature
T1 construct: purchased Active Motif 31432; host or cells: Sf9 insect cells
Procedure, shortened: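 FLAG-tagged JARID1B from Sf9 cells, pre-incubated 5 min with 0.1 uM compound (1% DMSO), then 500 nM biotinylated H3K4me3 peptide, 500 uM 2-OG, 25 uM Fe(II), 2 mM ascorbate in pH 7.5 Hepes buffer. After 30 min at room temperature, H3K4me2/1 product detected by TR-FRET (665/590 nm ratio).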

T1 sequence (Q9UGL1 whole entry): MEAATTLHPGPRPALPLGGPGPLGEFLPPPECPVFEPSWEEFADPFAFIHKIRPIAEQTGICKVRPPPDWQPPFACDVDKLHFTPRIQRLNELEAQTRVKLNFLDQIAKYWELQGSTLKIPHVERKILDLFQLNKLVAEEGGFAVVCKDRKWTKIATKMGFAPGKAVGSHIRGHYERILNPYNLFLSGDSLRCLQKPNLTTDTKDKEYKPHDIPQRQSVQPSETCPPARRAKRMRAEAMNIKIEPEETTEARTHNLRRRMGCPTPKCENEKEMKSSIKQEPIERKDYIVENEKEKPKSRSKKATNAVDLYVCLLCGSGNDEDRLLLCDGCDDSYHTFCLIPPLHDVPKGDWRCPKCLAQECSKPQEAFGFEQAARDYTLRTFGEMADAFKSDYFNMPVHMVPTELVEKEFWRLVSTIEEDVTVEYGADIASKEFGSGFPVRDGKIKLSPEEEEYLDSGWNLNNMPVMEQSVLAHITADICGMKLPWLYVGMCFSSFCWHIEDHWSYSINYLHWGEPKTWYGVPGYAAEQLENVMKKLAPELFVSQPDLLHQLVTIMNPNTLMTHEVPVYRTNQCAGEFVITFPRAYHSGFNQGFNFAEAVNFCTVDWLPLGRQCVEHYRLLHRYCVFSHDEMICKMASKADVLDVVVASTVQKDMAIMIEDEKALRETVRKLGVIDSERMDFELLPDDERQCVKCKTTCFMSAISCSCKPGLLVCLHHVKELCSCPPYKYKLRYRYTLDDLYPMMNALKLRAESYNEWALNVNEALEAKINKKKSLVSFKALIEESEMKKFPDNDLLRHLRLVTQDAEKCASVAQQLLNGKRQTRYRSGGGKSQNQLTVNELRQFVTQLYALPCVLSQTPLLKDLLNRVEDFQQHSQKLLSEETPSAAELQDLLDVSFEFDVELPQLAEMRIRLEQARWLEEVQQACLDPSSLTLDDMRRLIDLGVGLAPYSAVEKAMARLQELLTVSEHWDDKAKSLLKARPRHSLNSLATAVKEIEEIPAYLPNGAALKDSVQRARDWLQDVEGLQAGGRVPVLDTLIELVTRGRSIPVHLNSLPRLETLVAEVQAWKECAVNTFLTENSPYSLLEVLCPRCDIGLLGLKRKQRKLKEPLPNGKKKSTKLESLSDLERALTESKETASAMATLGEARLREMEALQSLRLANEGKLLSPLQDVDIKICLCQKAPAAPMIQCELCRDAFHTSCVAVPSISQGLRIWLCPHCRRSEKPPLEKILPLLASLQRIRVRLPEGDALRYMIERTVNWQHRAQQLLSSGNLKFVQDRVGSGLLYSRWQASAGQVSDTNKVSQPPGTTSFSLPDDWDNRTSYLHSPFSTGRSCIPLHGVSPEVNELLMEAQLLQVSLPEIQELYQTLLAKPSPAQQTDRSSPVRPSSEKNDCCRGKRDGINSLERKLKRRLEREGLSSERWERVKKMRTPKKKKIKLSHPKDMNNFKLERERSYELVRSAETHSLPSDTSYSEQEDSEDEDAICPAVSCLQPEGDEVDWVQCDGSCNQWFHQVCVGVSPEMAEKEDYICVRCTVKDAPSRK

SMILES | inhibition at 0.1 µM [%]
O=c1[nH]c(COc2ccc(F)c(Cl)c2)nc2c(-c3csc(NC4CCN(Cc5ccccc5)CC4)n3)nccc12 [Compound 102, 8-(2-((1-benzylpiperidin-4-yl)amino)thiazol-4-yl)-2-((3-chloro-4-fluorophenoxy)methyl) pyrido[3,4-d]pyrimidin-4(3H)-one] | ≥ 50
Nc1nc(-c2nccc3c(=O)[nH]c(COc4ccc(F)c(Cl)c4)nc23)cs1 [Compound 104, 8-(2-aminothiazol-4-yl)-2-((3-chloro-4-fluorophenoxy)methyl) pyrido[3,4-d]pyrimidin-4(3H)-one] | 20 to 50
O=c1[nH]c(COc2ccc(F)c(Cl)c2)nc2c(-c3cscn3)nccc12 [Compound 106, 2-((3-chloro-4-fluorophenoxy)methyl)-8-(thiazol-4-yl)pyrido[3,4-d]pyrimidin-4(3H)-one] | 20 to 50
Cc1ccc(CCNc2nc(-c3nccc4c(=O)[nH]c(COc5ccc(F)c(Cl)c5)nc34)cs2)cc1C [Compound 112, 2-((3-chloro-4-fluorophenoxy)methyl)-8-(2-((3,4-dimethylphenethyl)amino)thiazol-4-yl)pyrido[3,4-d]pyrimidin-4(3H)-one] | < 20
O=c1[nH]c(COc2ccc(F)c(Cl)c2)nc2c(-c3csc(NCC(O)CN4CCNCC4)n3)nccc12 (stereo not shown) [Compound 113, 2-((3-chloro-4-fluorophenoxy)methyl)-8-(2-((2-hydroxy-3-(piperazin-1-yl)propyl)amino)thiazol-4-yl)pyrido[3,4-d]pyrimidin-4(3H)-one] | ≥ 50

Next, values leading:

inhibition at 0.1 µM [%] | SMILES
< 20 | Cc1nc(-c2nccc3c(=O)[nH]c(COc4ccc(F)c(Cl)c4)nc23)cs1 [Compound 103, 2-((3-chloro-4-fluorophenoxy)methyl)-8-(2-methylthiazol-4-yl)pyrido[3,4-d]pyrimidin-4(3H)-one]
< 20 | CCN(CC)c1nc(-c2nccc3c(=O)[nH]c(COc4ccc(F)c(Cl)c4)nc23)cs1 [Compound 105, 2-((3-chloro-4-fluorophenoxy)methyl)-8-(2-(diethylamino)thiazol-4-yl)pyrido[3,4-d]pyrimidin-4(3H)-one]
20 to 50 | O=c1[nH]c(COc2ccc(F)c(Cl)c2)nc2c(-c3csc(NC4CCN(Cc5ccccc5)C4)n3)nccc12 (stereo not shown) [Compound 107, 8-(2-((1-benzylpyrrolidin-3-yl)amino)thiazol-4-yl)-2-((3-chloro-4-fluorophenoxy)methyl) pyrido[3,4-d]pyrimidin-4(3H)-one]
< 20 | O=c1[nH]c(COc2ccc(F)c(Cl)c2)nc2c(-c3csc(NCCc4ccc(Cl)c(Cl)c4)n3)nccc12 [Compound 108, 2-((3-chloro-4-fluorophenoxy)methyl)-8-(2-((3,4-dichlorophenethyl)amino)thiazol-4-yl)pyrido[3,4-d]pyrimidin-4(3H)-one]
< 20 | O=c1[nH]c(COc2ccc(F)c(Cl)c2)nc2c(-c3csc(NCCCc4ccccc4Cl)n3)nccc12 [Compound 109, 2-((3-chloro-4-fluorophenoxy)methyl)-8-(2-((3-(2-chlorophenyl)propyl)amino)thiazol-4-yl)pyrido[3,4-d]pyrimidin-4(3H)-one]
< 20 | O=c1[nH]c(COc2ccc(F)c(Cl)c2)nc2c(-c3csc(NCCc4ccccc4Oc4ccccc4)n3)nccc12 [Compound 110, 2-((3-chloro-4-fluorophenoxy)methyl)-8-(2-((2-phenoxyphenethyl)amino)thiazol-4-yl)pyrido[3,4-d]pyrimidin-4(3H)-one]
20 to 50 | O=c1[nH]c(COc2ccc(F)c(Cl)c2)nc2c(-c3csc(NCC(O)c4ccncc4)n3)nccc12 (stereo not shown) [Compound 111, 2-((3-chloro-4-fluorophenoxy)methyl)-8-(2-((2-hydroxy-2-(pyridin-4-yl)ethyl)amino)thiazol-4-yl)pyrido[3,4-d]pyrimidin-4(3H)-one]
< 20 | O=c1[nH]c(COc2ccc(F)c(Cl)c2)nc2c(-c3cccc(Cl)n3)nccc12 [Compound 114, 2-((3-chloro-4-fluorophenoxy)methyl)-8-(6-chloropyridin-2-yl)pyrido[3,4-d]pyrimidin-4(3H)-one]
